Measurements taken from the supplement of paper PMC11451515.

Columns and labels:
Assay in all cases: AUC of viability dose-response curve (% viability x log10 dose units); higher = less sensitive
Conditions in all cases: 48 h
NOMO1 = tested on: NOMO1
How it was run: (§1)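 Medium-adapted leukemia cells in 1536-well plates, at 500 or 1000 cells/well, were incubated for 48 h at 37°C with library compounds in DMSO at 11 threefold doses from 47 μM to 0.79 nM. CellTiter-Glo One luminescence normalised per plate to DMSO and cell-free wells was fitted with a four-parameter log-logistic model over log10 doses. Area under the curve was integrated from this fit by trapezoidal rule, with curves beyond full viability scaled and failed quality-control curves removed.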

SEM cells = tested on: SEM cells
How it was run: as §1

P12-Ichikawa = tested on: P12-Ichikawa
How it was run: as §1

[1] = RPMI 5 mM glucose + 10% dialyzed FBS

Row | SMILES | AUC of viability dose-response curve (NOMO1; HPLM + 10% dialyzed FBS) | AUC of viability dose-response curve (NOMO1; RPMI 5 mM glucose + 10% FBS) | AUC of viability dose-response curve (NOMO1; [1]) | AUC of viability dose-response curve (SEM cells; HPLM + 10% dialyzed FBS) | AUC of viability dose-response curve (SEM cells; RPMI 5 mM glucose + 10% FBS) | AUC of viability dose-response curve (SEM cells; [1]) | AUC of viability dose-response curve (P12-Ichikawa; HPLM + 10% dialyzed FBS) | AUC of viability dose-response curve (P12-Ichikawa; RPMI 5 mM glucose + 10% FBS) | AUC of viability dose-response curve (P12-Ichikawa; [1])
1 | CC[C@@H]([C@H](C)O)n1ncn(-c2ccc(N3CCN(c4ccc(OCC5CO[C@@](Cn6cncn6)(c6ccc(F)cc6F)C5)cc4)CC3)cc2)c1=O (stereo partly specified) | 457 | 427 | 423 | 452 | 452 | 458 | 450 | 447 | 425
2 | CCCCOc1c(C(=O)c2c(F)cc(C)cc2F)cnc2[nH]ncc12 | 460 | 444 | 424 | 410 | 410 | 413 | 470 | 458 | 435
3 | O=C(O)CCNC(=O)c1ccc(/N=N/c2ccc(O)c(C(=O)O)c2)cc1 | 465 | 469 | 468 | 443 | 454 | 464 | 469 | 447 | 443
4 | CCCCN(CCCC)CC(O)c1cc(Cl)cc2c1-c1ccc(Cl)cc1/C2=C/c1ccc(Cl)cc1 (stereo unspecified) | 456 | 449 | 461 | 463 | 438 | 434 | 446 | 472 | 448
5 | CC(C)OC(=O)[C@H](C)N[P@](=O)(OC[C@H]1O[C@@H](N2\C=C/C(=O)NC2=O)[C@](C)(F)[C@@H]1O)OC3=CC=CC=C3 | 372 | 412 | 409 | 387 | 399 | 405 | 331 | 391 | 385
6 | CCCNC(=O)Nc1ccc(Oc2ncnc3cc(OC)c(OC)cc23)cc1Cl | 419 | 417 | 424 | 441 | 402 | 413 | 438 | 433 | 440
7 | Cc1ccc([S+](=O)([O-])OCC(=O)Nc2ccc(C(=O)O)c(O)c2)cc1 | 469 | 460 | 448 | 458 | 438 | 455 | 446 | 469 | 465
8 | CC#CCn1c(N2CCC[C@@H](N)C2)nc2c1c(=O)n(Cc1nc(C)c3ccccc3n1)c(=O)n2C | 471 | 443 | 457 | 475 | 460 | 433 | 473 | 450 | 449
9 | CC(N[C@H]1CCCC[C@@H]1NC(=O)c1ccc(Cl)cc1)c1cccc2ccccc12 (stereo partly specified) | 398 | 416 | 421 | 449 | 449 | 455 | 428 | 420 | 425
